The text below walks through data of US20110281747A1, “BIOMARKERS FOR PREDICTING RAPID RESPONSE TO HCV TREATMENT” (ROCHE MOLECULAR SYSTEMS, INC., priority 2009, published 2011).

SMILES strings stand for the structures.

The conditions of data set [1]: in vivo; cited from earlier work.
Another data set concerns HCV. Conditions: monotherapy; cited from earlier work.
Data set [2] in a line: Phase II clinical trial of RO4588161: premature withdrawal for safety reasons. It counts as in vivo, human. From the text:
This was a phase 2A, multi-center, randomized, double-blinded (RO4588161 and ribavirin were double-blinded and Pegasys was open labeled), active-controlled, with a parallel-group study which is ongoing. A screening period (time from the first screening assessment to the first administration of test drug) of 35 days preceded the treatment portion of the trial (FIG. 1). The HCV genotype and HCV RNA titer of each patient was confirmed during the screening period and only treatment-naïve patients with HCV genotype-1 and HCV RNA titer ≧50,000 IU/mL were eligible for enrollment.
One hundred and seven male and female patients between 18 and 66 years of age were enrolled into the study. Patients were randomized into four treatment groups: • Group A/Dual 1500 [RO4588161 1500 mg oral, twice daily+Pegasys 180 μg subcutaneous, once weekly] for 4 weeks—21 patients, • Group B/Dual 3000 [R04588161 3000 mg oral, twice daily+Pegasys 180 μg subcutaneous, once weekly] for 4 weeks—34 patients, • Group C/Triple 1500 [R04588161 1500 mg oral, twice daily+Pegasys 180 μg subcutaneous, once weekly+ribavirin 1000 mg (<75 kg) or 1200 mg (≧75 kg) oral daily] for 4 weeks—31 patients or • Group D/standard of care (SOC) [Pegasys 180 μg subcutaneous, once weekly+ribavirin 1000 mg (<75 kg) or 1200 mg (≧75 kg) oral daily] for 4 weeks—21 patients […]

On to `NC(=O)c1ncn([C@@H]2O[C@H](CO)[C@@H](O)[C@H]2O)n1` [ribavirin, 1-((2R,3R,4S,5R)-3,4-Dihydroxy-5-hydroxymethyl-tetrahydro-furan-2-yl)-1H-[1,2,4]triazole-3-carboxylic acid amide], for which, in data set [1], the “patients with hemolytic anemia requiring dose reduction or discontinuation of ribavirin therapy” value was 10 to 20%. In the data set with HCV, the “effect on serum levels of HCV-RNA” value is on record as “does not lower serum levels of HCV-RNA” and the “patients whose serum amino transferase levels are reduced to normal” value is given as 40%. The “patients who prematurely withdrew for safety reasons from treatment” value in data set [2] (both, human, in vivo, 4 weeks) came to 5 patients.
Regarding `CC(C)C(=O)OC[C@@]1(N=[N+]=[N-])O[C@@H](n2ccc(N)nc2=O)[C@H](OC(=O)C(C)C)[C@@H]1OC(=O)C(C)C` [RO4588161, Isobutyric acid (2R,3S,4R,5R)-5-(4-amino-2-oxo-2H-pyrimidin-1-yl)-2-azido-3,4-bis-isobutyryloxy-tetrahydro-furan-2-ylmethyl ester], the “patients who prematurely withdrew for safety reasons from treatment” value in data set [2] (among the 104 evaluable patients) is 43 patients.
